# Several values for one entry are separate records, joined by “and”; a condition that tells them apart may be missing. Identical values can stand only once.
# Experiments:
# [1] = tested on: CD14 positive recurrent bladder cancer patient-derived xenograft (PDX); test: Anti-CD14 IgG1/IgG4 with or without cisplatin, tumor treatment in PDX mice (tumor length, width, volume, tumor weight; Example 6); format: in vivo; settings: for Tumor Length / Tumor Volume / Tumor Width: Cisplatin 4 mg/kg i.v. (C. Ex. 2), PDX mice 1-6
# Text: After removing the primary tumor tissue from the patient, the tissue was temporarily placed in a complete culture medium containing RPMI1640 (Gibco Roswell Park Memorial Institute 1640 Media)+PS (penicillin and streptomycin)+10% FBS (Fetal bovine serum). The tissue was then transported to a sterile operating room within an SPF-grade (Specific Pathogen Free) animal facility. The tumor tissue was cut to an appropriate size (5 millimeters (mm) in diameter). Severely immunodeficient NSG (NOD scid gamma mouse) mice were anesthetized using an isoflurane respirator. The tumor was transplanted subcutaneously into the right rib area through surgery. When the tumor volume reached 1 cm^3, it was passaged following the same procedure, and after expanding for three generations, the tumor became stable for use in formal experiments. During the experiment, passaging and expansion were performed as needed. When the tumor volume reached 100 mm^3, the mice were divided into groups according to the experimental requirements and treated with drugs.
# The IgG4 tested is the original version of Atibuclimab.
# Drug administration on the PDX mice was performed intravenously.
# [2] = Mouse weight under the treatment regimens of Example 6 (PDX mice); settings: Cisplatin 4 mg/kg i.v. (C. Ex. 2), PDX mice 1-6
# Protocol: For these experiments, eight (8) treatment groups for PDX mice were set up: control IgG group (C.Ex. 1), single cisplatin group (4 mg/kg; C.Ex. 2), single anti-CD14-IgG1 group (5 mg/kg; Ex. 1), single anti-CD14-IgG4 (5 mg/kg; Ex. 2), combined cisplatin and anti-CD14-IgG1 group (4 mg/kg+1.5 mg/kg; Ex. 3), combined cisplatin and anti-CD14-IgG4 group (4 mg/kg+1.5 mg/kg; Ex. 4), combined cisplatin and anti-CD14-IgG1 group (4 mg/kg+5 mg/kg; Ex. 5), and combined cisplatin and anti-CD14-IgG4 group (4 mg/kg+5 mg/kg; Ex. 6). […] When cisplatin was used in these experiments, the cisplatin was used at a dose of 4 mg/kg. “C.Ex.” refers to comparative examples and “Ex.” refers to examples of embodiments of the present disclosure. The control is a non-specific IgG1 having two identical heavy chains and two identical light chains. The non-specific IgG1 has no binding affinity to the antigen.
# Drug administration on the PDX mice was performed intravenously. Drug administration was performed on days 0, 4, 7, 11, 14, 18, 21, 25, and 28. Measurements of length, width, volume, and weight were performed prior to the drug administration on day 0, 4, 7, 11, 14, 18, 21, 25, and 28. The tumors were present on the skin of the mice. A ruler was used to measure the length and the width. The tumor volume was calculated by volume=½(length×width^2). The weight of the mouse was measured by placing the mouse on a scale and weighing. Tumor weight was measured by removing the tumor from the mouse and weighing on a scale.
compound,measurement,setting,value
"N.N.[Cl][Pt][Cl] [Cisplatin, cisplatin, reference compound]",Tumor Length,[1]; Day 0,6.73 mm and 6.19 mm and 6.27 mm and 6.28 mm and 7.76 mm and 7.8 mm
same,Tumor Volume,[1]; Day 0,60.66 mm^3 and 92.72 mm^3 and 86.02 mm^3 and 73.84 mm^3 and 94.74 mm^3 and 109.53 mm^3
same,Tumor Width,[1]; Day 0,4.15 mm and 5.35 mm and 5.12 mm and 4.74 mm and 4.83 mm and 5.18 mm
same,Tumor Length,[1]; Day 4,6.66 mm and 6.27 mm and 5.94 mm and 5.93 mm and 6.62 mm and 5.98 mm
same,Tumor Volume,[1]; Day 4,87.83 mm^3 and 103.64 mm^3 and 106.38 mm^3 and 105.48 mm^3 and 165.90 mm^3 and 96.75 mm^3
same,Tumor Width,[1]; Day 4,5.02 mm and 5.62 mm and 5.85 mm and 5.83 mm and 6.92 mm and 5.56 mm
same,Tumor Length,[1]; Day 7,6.33 mm and 6.99 mm and 6.68 mm and 7.3 mm and 7.66 mm and 7.34 mm
same,Tumor Volume,[1]; Day 7,97.32 mm^3 and 111.46 mm^3 and 139.19 mm^3 and 144.96 mm^3 and 184.82 mm^3 and 147.18 mm^3
same,Tumor Width,[1]; Day 7,5.42 mm and 5.52 mm and 6.31 mm and 6.16 mm and 6.79 mm and 6.19 mm
same,Tumor Length,[1]; Day 11,8.7 mm and 6.68 mm and 7.84 mm and 8.41 mm and 7.57 mm and 7.94 mm
same,Tumor Width,[1]; Day 11,6.55 mm and 6.18 mm and 6.08 mm and 7.57 mm and 7.19 mm and 5.43 mm
same,Tumor Length,[1]; Day 14,7.16 mm and 8.08 mm and 7.68 mm and 8.19 mm and 9.8 mm and 9.87 mm
same,Tumor Volume,[1]; Day 14,191.56 mm^3 and 209.57 mm^3 and 206.05 mm^3 and 280.52 mm^3 and 299.36 mm^3 and 256.73 mm^3
same,Tumor Width,[1]; Day 14,7.15 mm and 7.04 mm and 7.16 mm and 8.09 mm and 7.64 mm and 7.05 mm
same,Tumor Length,[1]; Day 18,9.5 mm and 10.13 mm and 8.93 mm and 9.14 mm and 8.11 mm and 9.96 mm
same,Tumor Volume,[1]; Day 18,359.20 mm^3 and 359.95 mm^3 and 306.62 mm^3 and 367.06 mm^3 and 235.57 mm^3 and 353.91 mm^3
same,Tumor Width,[1]; Day 18,8.5 mm and 8.24 mm and 8.1 mm and 8.76 mm and 7.45 mm
same,Tumor Length,[1]; Day 21,9.64 mm and 9.79 mm and 9.77 mm and 10.69 mm and 9.27 mm and 9.57 mm
same,Tumor Volume,[1]; Day 21,461.07 mm^3 and 334.49 mm^3 and 398.65 mm^3 and 549.42 mm^3 and 378.25 mm^3 and 399.39 mm^3
same,Tumor Width,[1]; Day 21,9.56 mm and 8.08 mm and 8.83 mm and 9.91 mm and 8.93 mm
same,Tumor Length,[1]; Day 25,10.14 mm and 11.63 mm and 10.89 mm and 10.35 mm and 10.8 mm and 9.29 mm
same,Tumor Volume,[1]; Day 25,447.20 mm^3 and 648.21 mm^3 and 545.11 mm^3 and 447.56 mm^3 and 545.04 mm^3 and 354.58 mm^3
same,Tumor Width,[1]; Day 25,9.18 mm and 10.32 mm and 9.78 mm and 9.09 mm and 9.82 mm and 8.54 mm
same,Tumor Length,[1]; Day 28,10.94 mm and 11.95 mm and 11.36 mm and 9.95 mm and 11.27 mm and 11.26 mm
same,Tumor Volume,[1]; Day 28,472.03 mm^3 and 644.29 mm^3 and 617.31 mm^3 and 399.59 mm^3 and 624.50 mm^3 and 680.98 mm^3
same,Tumor Width,[1]; Day 28,9.08 mm and 10.15 mm and 10.19 mm and 8.76 mm and 10.29 mm and 10.75 mm
same,Tumor weight after 28 days,"[1]; Cisplatin (4 mg/kg), C. Ex. 2, per mouse 1-6",0.556 grams and 0.459 grams and 0.538 grams and 0.669 grams and 0.566 grams and 0.419 grams
same,tumor suppression rate,"[1]; single cisplatin 4 mg/kg (C.Ex. 2), after 28 days, compared to the control group",about 50%
same,Mouse Weight,[2]; Day 0,20.24 g and 20.99 g and 19.91 g and 20.78 g and 20.29 g and 20.61 g
same,Mouse Weight,[2]; Day 4,20.91 g and 20.32 g and 20.42 g and 20.81 g and 20.93 g and 19.35 g
same,Mouse Weight,[2]; Day 7,19.77 g and 20.8 g and 21.42 g and 19.96 g and 20.93 g and 20.38 g
same,Mouse Weight,[2]; Day 11,21.17 g and 21.76 g and 20.58 g and 20.08 g and 21.59 g and 19.94 g
same,Mouse Weight,[2]; Day 14,21.09 g and 21.3 g and 21.38 g and 21.68 g and 20.56 g and 22.59 g
same,Mouse Weight,[2]; Day 18,21.17 g and 21.02 g and 21.25 g and 21.23 g and 21.03 g and 21.58 g
same,Mouse Weight,[2]; Day 21,22.54 g and 22.44 g and 22.47 g and 22.85 g and 22.23 g and 22.65 g
same,Mouse Weight,[2]; Day 25,25.05 g and 24.06 g and 22.26 g and 23.7 g and 25.49 g and 22.66 g
same,Mouse Weight,[2]; Day 28,24.11 g and 25.57 g and 24.32 g and 23.69 g and 24.47 g and 25.73 g

# Reference: patent US20250011456A1, “ANTIBODIES AGAINST CD14 AND USES THEREOF” (Villanelle Life Science Inc, priority 2023, published 2025)
